Measurements: US9434684B2, “Oxime-substituted amide compound and pest control agent” (Nissan Chemical Industries, Ltd., priority 2012, dated 2016)

Key:
[1] = tested on: Botrytis cinerea; experiment: Preventive effect against cucumber gray mold (spore inoculation); type: in vivo; settings: 72 h, cucumber leaves, test solution A 500 ppm, 3 days
Description: Compounds of the present invention were dissolved in a solvent for emulsion (a mixture of Sorpol (registered trademark) 3005XL (manufactured by Toho Chemical Industry Co., Ltd.): N-methylpyrrolidone:Solvesso (registered trademark) 200 (manufactured by ExxonMobil Chemical) in a ratio of 1:5:2) to prepare 20% emulsifiable concentrates. Then, distilled water was added to dilute the emulsifiable concentrates to the predetermined concentration (500 ppm), and the obtained solutions were used in the following Test Examples 1 to 7. Cucumber (cultivar: Sagami Hanjiro) was planted in 90 cm^3 plastic pots, and in the seed leaf stage, 5 ml per pot of test solutions A of the compounds of the present invention were applied. After drying in air, the treated leaves were cut and put in plastic containers. 30 μl of a mixture of a suspension of conidium of Botrytis cinerea and a dissolved PDA medium in a ratio of 1:1 was dropped on each treated leaf and inoculated. After the inoculation, the plastic containers were placed at 20° C. in humid conditions for 3 days, and the proportion of the formed lesion in the inoculated leaves was measured to calculate the control value in accordance with the same formula as in Test Example 1. Here, the test was carried out in duplicate.

[2] = tested on: Botrytis cinerea; experiment: Preventive effect against cucumber gray mold (mycelium inoculation); type: in vivo; settings: 48 h, test solution A 500 ppm, 2 days
Description: (§1) Compounds of the present invention were dissolved in a solvent for emulsion (a mixture of Sorpol (registered trademark) 3005XL (manufactured by Toho Chemical Industry Co., Ltd.): N-methylpyrrolidone:Solvesso (registered trademark) 200 (manufactured by ExxonMobil Chemical) in a ratio of 1:5:2) to prepare 20% emulsifiable concentrates. Then, distilled water was added to dilute the emulsifiable concentrates to the predetermined concentration (500 ppm), and the obtained solutions were used in the following Test Examples 1 to 7. Cucumber (cultivar: Sagami Hanjiro) was planted in 90 cm^3 plastic pots, and in the seed leaf stage, 5 ml per pot of test solutions A of the compounds of the present invention were applied. On the next day, the pots were put in a plastic container, and agar blocks (diameter: 5 mm) containing Botrytis cinerea preliminarily cultivated in a PDA medium were inoculated to the seed leaves of the cucumber treated with the solutions. After the inoculation, the plastic container was covered with a plastic sheet and humidified, and placed at 20° C. for 2 days, whereupon the proportion of the formed lesion in the inoculated leaves was measured to calculate the control value in accordance with the same formula as in Test Example 1. Here, the test was carried out in duplicate.

[3] = tested on: Sclerotinia sclerotiorum; experiment: Preventive effect against cucumber stem rot; type: in vivo; settings: 48 h, test solution A 500 ppm, 2 days
Description: as §1, with “After drying in air,” for “On the next day,”, “Sclerotinia sclerotiorum” for “Botrytis cinerea”

[4] = tested on: Meloidogyne incognita; experiment: Preventive effect on Meloidogyne incognita (garden balsam seedlings, root knot); type: in vivo; settings: 504 h, test solution B 100 ppm, 1 ml per seedling, 3 weeks, read-out: efficacy (damage degree, root knot, relative to non-treated plot)
Description: Compounds of the present invention were dissolved in dimethylsulfoxide to prepare 1% solutions. Then, distilled water was added to dilute the solutions to the predetermined concentration (100 ppm), and the obtained solutions were used in the following Test Examples 8 to 12. 1 ml per seedling of test solutions B of the compounds of the present invention were treated to the bases of garden balsam seedlings (about 2 weeks after budding) planted in a cell tray of which each cell was filled with 10 g of soil. 1 Hour after the application, 1 ml per cell of water containing Meloidogyne incognita 2 L larvae (100 2 L larvae/1 ml) was applied to the bases. The tray was placed in a greenhouse for 3 weeks, and the root knot level formed on the root was determined in accordance with the following damage index and the damage degree to calculate the efficacy (%) relative to the non-treated plot in accordance with the following formula. <Damage Index> 0: No knot observed. 1: Knot observed on a part of the root system. 2: Knot observed on the entire root system. 3: Large knot observed. 4: Large knot observed on the entire root system. [Damage degree]=[Σ(damage index×number of seedlings at each index)/(4×number of seedlings investigated)]×100 Efficacy(%)=[1−(damage degree in treated plot/damage degree in non-treated plot)]×100

[5] = tested on: Puccinia recondita; experiment: Preventive effect against wheat brown leaf rust; type: in vivo; settings: 216 h, test solution A 500 ppm, 1 + 8 days
Description: (§2) Compounds of the present invention were dissolved in a solvent for emulsion (a mixture of Sorpol (registered trademark) 3005XL (manufactured by Toho Chemical Industry Co., Ltd.): N-methylpyrrolidone:Solvesso (registered trademark) 200 (manufactured by ExxonMobil Chemical) in a ratio of 1:5:2) to prepare 20% emulsifiable concentrates. Then, distilled water was added to dilute the emulsifiable concentrates to the predetermined concentration (500 ppm), and the obtained solutions were used in the following Test Examples 1 to 7. To wheat (cultivar: Norin-61-go) in 1.3-leaf stage planted in 90 cm^3 plastic pots, 5 ml per pot of test solutions A of the compounds of the present invention were applied. On the next day, a suspension of spore of Puccinia recondita was spray-inoculated to the wheat, and the pots were placed in an inoculation chamber at 20° C. under a humidity of 100% for 1 day. Then, the pots were placed in an air-conditioned greenhouse (20° C.) for 8 days. The proportion of the formed lesion in the inoculated leaves was measured to calculate the control value in accordance with the same formula as in Test Example 1. Here, the test was carried out in duplicate.

[6] = tested on: Phaeosphaeria nodorum (synonym: Septoria nodorum); experiment: Preventive effect against wheat glume blotch; type: in vivo; settings: Parastagonospora nodorum, 192 h, test solution A 500 ppm, 2 + 6 days
Description: as §2, with “Haruyutaka)” for “Norin-61-go)”, “conidium” for “spore”, “Phaeosphaeria nodorum synonym: Septoria nodorum)” for “Puccinia recondita”, “2 days.” for “1 day.”, “6” for “8”

| melting point [°C] | Compound | pest or weed control at 500 µg/mL [2] [%] | pest or weed control at 100 µg/mL [4] [%] | pest or weed control at 500 µg/mL [5] [%] | pest or weed control at 500 µg/mL [6] [%] | other results |
| --- | --- | --- | --- | --- | --- | --- |
| – | CON=C(CN(SC(Cl)(Cl)Cl)C(=O)c1ccccc1C(F)(F)F)c1ncc(Cl)cc1Cl [4-015] | ≥ 70 | – | – | – | pest or weed control at 500 µg/mL [1]: ≥ 70%; pest or weed control at 500 µg/mL [3]: ≥ 70% |
| 104 to 105 | CO/N=C(\c1ncc(Cl)cc1Cl)C(C)NC(=O)c1ccccc1C(F)(F)F (centres unmarked) [Compound No. 2-117, (Z)—N-[2-(3,5-dichloropyridin-2-yl)-2-methoxyimino-1-methylethyl]-2-(trifluoromethyl)benzamide] | ≥ 70 | ≥ 50 | ≥ 70 | – | pest or weed control at 500 µg/mL [1]: ≥ 70% |
| – | CCON=C(CNC(=O)c1cn(C)nc1C(F)F)c1ncc(Cl)cc1Cl [Compound No. 17-004, N-[2-(3,5-dichloropyridin-2-yl)-2-(ethoxyimino)ethyl]-3-difluoromethyl-1-methyl-1H-pyrazole-4-carboxamide] | – | – | – | ≥ 70 | – |
| – | CON=C(CNC(=O)c1ccccc1C(F)(F)F)c1ncc(OCC(F)(F)F)cc1Cl [Compound No. 2-223, N-[2-[3-chloro-5-(2,2,2-trifluoroethoxy)pyridin-2-yl]-2-(methoxyimino)ethyl]-2-(trifluoromethyl)benzamide] | ≥ 70 | – | – | – | – |
| – | CON=C(CNC(=O)c1ccccc1C(F)(F)F)c1ncc(OC)cc1Cl [2-083, N-[2-(3-chloro-5-methoxypyridin-2-yl)-2-(methoxyimino)ethyl]-2-(trifluoromethyl)benzamide] | ≥ 70 | – | – | – | – |
| – | CC(C)ON=C(CNC(=O)c1ccccc1C(F)(F)F)c1ncc(Cl)cc1Cl [Compound No. 2-005, N-[2-(3,5-dichloropyridin-2-yl)-2-(isopropoxyimino)ethyl]-2-(trifluoromethyl)benzamide] | – | – | ≥ 70 | – | – |
| – | CC(C)(C)ON=C(CNC(=O)c1ccccc1C(F)(F)F)c1ncc(Cl)cc1Cl [2-139, N-[2-(3,5-dichloropyridin-2-yl)-2-(tert-butoxyimino)ethyl]-2-(trifluoromethyl)benzamide] | – | – | – | ≥ 70 | – |
| 84 to 86 | CCO/N=C(/CNC(=O)c1ccccc1C(F)(F)F)c1ncc(Cl)cc1Cl [Compound No. 2-120, (Z)—N-[2-(3,5-dichloropyridin-2-yl)-2-(ethoxyimino)ethyl]-2-(trifluoromethyl)benzamide] | ≥ 70 | ≥ 50 | ≥ 70 | ≥ 70 | pest or weed control at 500 µg/mL [1]: ≥ 70% |
| 85 to 86 | CO/N=C(/CNC(=O)c1ccccc1C(F)(F)F)c1ncc(Br)cc1Cl [Compound No. 2-216, (Z)—N-[2-(5-bromo-3-chloropyridin-2-yl)-2-(methoxyimino)ethyl]-2-(trifluoromethyl)benzamide] | – | ≥ 50 | – | ≥ 70 | – |
| – | CC(O/N=C(/CNC(=O)c1ccccc1C(F)(F)F)c1ncc(Cl)cc1Cl)c1ccc(F)cc1 (centres unmarked) [Compound No. 2-174, (Z)—N-[2-(3,5-dichloropyridin-2-yl)-2-[1-(4-fluorophenyl)ethoxyimino]ethyl]-2-(trifluoromethyl)benzamide] | – | ≥ 50 | ≥ 70 | – | – |
| 80 to 83 | CCCO/N=C(/CNC(=O)c1ccccc1C(F)(F)F)c1ncc(Cl)cc1Cl [Compound No. 2-126, (Z)—N-[2-(3,5-dichloropyridin-2-yl)-2-(propoxyimino)ethyl]-2-(trifluoromethyl)benzamide] | – | ≥ 50 | ≥ 70 | – | – |
| – | CC(C)(C)ON=C(CNC(=O)c1nccnc1C(F)(F)F)c1ncc(Cl)cc1Cl (single isomer, unassigned) [9-006, N-[2-(3,5-dichloropyridin-2-yl)-2-(tert-butoxyimino)ethyl]-3-(trifluoromethyl)pyrazine-2-carboxamide] | ≥ 70 | – | – | – | pest or weed control at 500 µg/mL [3]: ≥ 70% |
| – | CC(C)ON=C(CNC(=O)c1ccccc1C(F)(F)F)c1ncc(Br)cc1Cl [Compound No. 2-181, N-[2-(5-bromo-3-chloropyridin-2-yl)-2-(isopropoxyimino)ethyl]-2-(trifluoromethyl)benzamide] | – | ≥ 50 | – | ≥ 70 | – |
| – | CC(C)ON=C(CNC(=O)c1ccccc1C(F)(F)F)c1ncc(C#CC(C)(C)C)cc1Cl [Compound No. 2-248, N-[2-[3-chloro-5-(3,3-dimethyl-1-butynyl)pyridin-2-yl]-2-(isopropoxyimino)ethyl]-2-(trifluoromethyl)benzamide] | – | – | ≥ 70 | – | – |
| – | CC(C)O/N=C(\c1ncc(Cl)cc1Cl)[C@H](C)NC(=O)c1ccccc1C(F)(F)F [Compound No. 2-132, (S)—N-[2-(3,5-dichloropyridin-2-yl)-2-(Z)-(isopropoxyimino)-1-methylethyl]-2-(trifluoromethyl)benzamide] | – | – | – | ≥ 70 | – |

| Compound | melting point [°C] | pest or weed control at 500 µg/mL [2] [%] | pest or weed control at 100 µg/mL [4] [%] | pest or weed control at 500 µg/mL [5] [%] | pest or weed control at 500 µg/mL [6] [%] | other results |
| --- | --- | --- | --- | --- | --- | --- |
| CCC(C)O/N=C(/CNC(=O)c1ccccc1C(F)(F)F)c1ncc(Cl)cc1Cl (centres unmarked) [2-136, (Z)—N-[2-(3,5-dichloropyridin-2-yl)-2-(sec-butoxyimino)ethyl]-2-(trifluoromethyl)benzamide] | 68 to 70 | – | – | ≥ 70 | – | – |
